The text below walks through data of patent publication US8703815B2, “Small molecules that covalently modify transthyretin” (The Scripps Research Institute, priority 2009, dated 2014).

In series [1] the test system is WT-TTR cytotoxicity in human IMR-32 neuroblastoma cells. Particulars: cited from earlier work.
The target in series [2] is T1, WT-TTR (Homo sapiens, UniProt P02766).
T1 construct: composed of 127-residue β-sheet-rich subunits; made in house; host or cells: E. coli
As to the kind of experiment: RP-HPLC analysis of conjugation to recombinant WT-TTR. It counts as binding. The conditions noted are these: data not shown. As for the experimental part: The ability of candidate covalent kinetic stabilizers Compounds 1-4 to form a chemoselective amide bond with the K15 residue of WT-TTR was assessed by incubating the recombinant WT-TTR tetramer (3.6 μM) with Compounds 1-4 (7.2 μM, the minimum concentration required to covalently modify both T4 binding sites) for 18 hours at 25° C. The stilbene-TTR conjugate was quantified by reverse-phase (RP)-HPLC using a denaturing acetonitrile gradient.
Recombinant WT-TTR was expressed as described previously [Lashuel et al., Biochemistry 38:13560-13573 (1999)]. For analysis of test compounds with TTR, each compound (1.5 μL in DMSO, 1.44 mM) was added to 300 μL of WT-TTR or K15A mutant TTR (3.6 μM, 10 mM sodium phosphate, 100 mM KCl, 1 mM EDTA, pH 7.0). The samples were vortexed, and incubated for 18 hours at 25° C. Reverse phase high performance liquid chromatography (RP-HPLC) was performed on a Water 600 E multi-solvent delivery system, using a Waters 486 tunable absorbance detector, a 717 autosampler, and a ThermoHypersil Keystone Betabasic-18 column μ150 Å pore size, 3 μm particle size, and mobile phase A; 0.1% TFA in 95% H2O+5% CH3CN and mobile phase B, 0.1% TFA in 95% CH3CN+5% H2O). Linear gradients were run from 100:0 to 0:100 A:B for 27 minutes.

Series [3] concerns familial amyloid polyneuropathy (FAP). Particulars: phase II/III placebo-controlled; cited from earlier work.
The test system of series [4] is IMR-32 cells. As to the kind of experiment: Compound cytotoxicity to IMR-32 cells in the absence of WT-TTR. It counts as cell-based, human. As for the experimental part:
Metabolically active cells reduce the resazurin redox dye to resorufin, a soluble fluorescent compound. [O'Brien et al., Eur. J. Biochem. 267:5421-5426 (2002)] The percentage of viable cells was calculated relative to cells treated with vehicle only (cell culture media and DMSO=100% viable).
(§1) The human neuroblastoma IMR-32 cell line (CCL-127 ATCC) was maintained in Opti-MEM® medium (Invitrogen), supplemented with 5% FBS, 1 mM Hepes buffer, 2 mM L-glutamine, 100 units/mL penicillin, 100 μg/mL streptomycin and 0.05 mg/mL CaCl2 (complete cell medium). Cells were seeded in black wall, clear bottom, tissue culture treated 96-well plates (Costar) at a density of 6,000 cells/well in complete cell medium and incubated overnight (about 18 hours) at 37° C.
(§2) Recombinant WT-TTR purified in the cold was used as the cytotoxic insult. The protein was buffer-exchanged in Hanks' Balanced Salt Solution (HBSS, Mediatech, Manassas, Va.) at 10° C. using a Centriprep® filter device (10 kDa MWCO, Millipore). Compounds (16 mM in DMSO) were diluted 1:1000 with WT-TTR (16 μM in HBSS, filter sterilized) or with HBSS only, vortexed and incubated for 18 hours at 37° C. WT-TTR (16 μM in HBSS) containing the same amount of DMSO was prepared in parallel and incubated under the same conditions.
(§3) The medium was removed from the cells and replaced immediately by the TTR/compound mixtures or HBSS previously diluted 1:1 in Opti-MEM® supplemented with 0.8 mg/mL BSA, 2 mM Hepes buffer, 4 mM L-glutamine, 200 units/mL penicillin, 200 μg/mL streptomycin and 0.1 mg/mL CaCl2. The cells were incubated 24 hours at 37° C. Cell viability was evaluated by a resazurin reduction assay.
(§4) Briefly, 10 μL of resazurin (500 μM, PBS) was added to each well and fluorescence quantified in a plate reader (Ex/Em 530/590 nm, Tecan Safire 2, Austria) after 1 hour of incubation at 37° C. Cell viability was calculated as percentage of fluorescence relative to cells treated only with vehicle (100% viability) after subtraction of blank fluorescence (wells without cells). Averages and standard errors from 2 independently performed studies, each performed at least in triplicate, were calculated using GraphPrism (San Diego, Calif., US).

Series [5] concerns the target T2, K15A-TTR (Homo sapiens, UniProt P02766, K35A).
T2 construct: composed of 127-residue β-sheet-rich subunits; made in house
As to the kind of experiment: Acid-mediated K15A-TTR fibril formation with non-covalent stabilizers. The series is classed as biochemical. The conditions noted are these: compound 7.2 μM, 72 hours, pH 4.4. As for the experimental part: Compounds (5 μL of 1.44 mM solution in DMSO) were added to 495 μL of TTR (7.2 μM, in 10 mM sodium phosphate, 100 mM KCl, 1 mM EDTA, pH 7.0). The mixtures were vortexed and incubated (maintained) for 18 hours at 25° C. An acidic buffer solution (500 μL, 100 mM acetate, 100 mM KCl, 1 mM EDTA, pH 4.2) was added to obtain a final pH value of 4.4, and the mixtures were incubated at 37° C. for 72 hours without agitation. The solutions were vortexed to evenly distribute any precipitate, and turbidity was measured at 400 nm using a Hewlett Packard model 8453 UV-VIS Spectrophotometer.

For series [6], the system named is WT-TTR cytotoxicity in human IMR-32 neuroblastoma cells. As to the kind of experiment: Inhibition of WT-TTR cytotoxicity in IMR-32 cells (resazurin reduction). The conditions noted are these: WT-TTR 8 μM, compounds 2, 4, 6 and 8 μM, 24 hours. It counts as cell-based. As for the experimental part:
Cell viability was measured after 24 hours by a resazurin reduction assay.
as §1, §2, §3, §4
Background: The colour change of resazurin is a common sign of viable cells or microbes.

The target in series [7] is T1, WT-TTR. As to the kind of experiment: Acid-mediated WT-TTR fibril formation assay (turbidity at 400 nm). It counts as biochemical. The conditions noted are these: WT-TTR 3.6 μM, % fibril formation after 72 hours; read-out: IC50 (apparent), inhibition of WT-TTR amyloidogenesis. As for the experimental part: The mixtures were vortexed and incubated (maintained) for 18 hours at 25° C.

Series [8] concerns the target T2, K15A-TTR. As to the kind of experiment: Fluorimetric assay with recombinant K15A-TTR. The series is classed as binding. The conditions noted are these: B2 7.2 μM. As for the experimental part:
[The source words this procedure for another variant and says it was used here with some conditions changed.] The excitation spectra are shown with dotted traces (λmax=328 nm), and emission spectra are adjacently (λmax=384 nm). Very low fluorescence resulted from 328 nm excitation of stilbene Compounds 4 or 2 alone in buffer (FIGS. 4A and 4B; traces substantially on the X-axis).
WT-TTR was expressed in an E. coli expression system and purified as described previously. [Lashuel et al., Biochemistry 1999, 38, 13560-13573] The covalent TTR modifiers (A1 or A2) or the non-covalent TTR ligand B2 (5 μL of a 1.44 mM solution in DMSO, final concentration: 7.2 μM) were added to 1 mL of a solution of WT-TTR homotetramer (0.2 mg/mL, 3.6 μM) in 10 mM phosphate, 100 mM KCl and 1 mM EDTA (pH 7.0 phosphate buffer) in a 2 mL Eppendorf tube. The samples were vortexed, and incubated for 18 h at 25° C. The fluorescence changes were monitored using a Varian Cary 50 spectrofluorometer at 20° C. in a 1 cm path length quartz cell. The excitation slit was set at 5 nm and the emission slit was set at […]. The samples were excited at 328 nm and the emission spectra were collected from 350 to 550 nm.
WT-TTR was expressed and purified from an E. coli expression system as described previously. [Lashuel et al., Biochemistry 1999, 38:13560]. The covalent modifiers (Compounds 4 or 2) or the non-covalent TTR ligand Compound B2 (5 μL of a 1.44 mM solution in DMSO) were added to 1 mL of a solution of WT-TTR (0.2 mg/mL, 3.6 μM) in 10 mM phosphate, 100 mM KCl and 1 mM EDTA (pH 7.0) in a 2 mL Eppendorf tube. The samples were vortexed, and incubated for 18 hours at 25° C. The fluorescence changes were monitored using a Varian Cary 50 spectrofluorometer at 20° C. in a 1 cm path length quartz cell. The excitation slits was set at 5 nm and the emission slits was set at […]. The samples were excited at 328 nm and the emission spectra were collected from 330 to 550 nm (FIG. 4). The time-dependent fluorescence changes were monitored in similar manner (FIG. 5).

The nature of series [9]: Quantum yield measurement in buffer. The series is classed as physicochemical. On the procedure:
(§5) The covalent TTR modifier A1 or A2 or the non-covalent TTR ligand B2 (15 μL of a 1.44 mM solution in DMSO, final concentration: 7.2 μM) was added to 3 mL of a solution of WT-TTR homotetramer (0.2 mg/mL, 3.6 μM) in 10 mM phosphate, 100 mM KCl and 1 mM EDTA (pH 7.0 phosphate buffer). The samples were vortexed, and incubated for 18 hours at 25° C. Quantum yields were measured by following the instructions at the web site: jobinyvon.com/usadivisions/Fluorescence/applications/quantumyieldstrad.pdf. Quinine bisulfate in 0.5 M H2SO4 was used as a reference for comparison (Φf=0.546). [Crosby et al., J. Phys. Chem. 1971, 75, 991-1024.]

Series [10] has as its target T1, WT-TTR. As to the kind of experiment: Quantum yield measurement with WT-TTR. It counts as physicochemical. The conditions noted are these: compound 7.2 μM. As for the experimental part: as §5
The nature of series [11]: Photoisomerization upon irradiation (312 nm, 10 seconds). The series is classed as physicochemical. Particulars: 312 nm. As for the experimental part:
Although TTR can bind to small molecules composed of two aromatic rings when the tethered rings are up to 40° out of plane {based on TTR-stilbene crystal structures [Klabunde et al., Nat. Struct. Biol. 2000, 7, 312-321; Connelly et al., Curr. Opin. Struc. Biol. 2010, 20, 54-62; Johnson et al., J. Med. Chem. 2008, 51, 6348-6358; Choi et al., J. Am. Chem. Soc. 2010, 132, 1359-1370; Choi et al., Nat. Chem. Biol. 2010, 6, 133-139; Baures et al., Bioorg. Med. Chem. 1998, 6, 1389-1401; and Baures et al., Bioorg. Med. Chem. 1999, 7, 1339-1347]}, it would be energetically unfavorable to bind the excited singlet state in a conformation where the two aryl rings are oriented perpendicular to one another. Thus, we propose that the increase in fluorescence quantum yield of B2 from 0.09 in buffer to 0.55 in complex with TTR results from the resculpted excited singlet state energy surface of the stilbene in complex with TTR, such that the trans-conformer is the only state of relatively low potential energy [Gorner, H.; Kuhn, H. J. Adv, Photochem. 1995, 19, 1-117; Malkin et al., J. Phys. Chem. 1964, 68, 1153-1163; Saltiel, J. J. Am. Chem. Soc. 1967, 89, 1036-1037; Saltiel et al., J. Am. Chem. Soc. 1972, 94, 6445-6457; Saltiel et al., J. Am. Chem. Soc. 1979, 101, 2982-2996; and Saltiel et al., J. Am. Chem. Soc. 1968, 90, 4759-4760] inhibiting photoisomerization-based relaxation of B2. That B2 binding to TTR inhibits B2 photoisomerization is consistent with the observation that the irradiation of B2 in buffer (Life Technologies, TFX-35M, 312 nm) for 10 seconds affords 60% of the cis isomer, along with other minor photoreaction products, whereas irradiation of B2 bound to TTR yields only 20% cis isomer.
It appears that the increase in fluorescence quantum yield of A2 from 0.00 in buffer to 0.27 in the TTR-(stilbene)n≦2 conjugate is only partly explained by the mechanism proposed for B2 [Gorner, H.; Kuhn, H. J. Adv, Photochem. 1995, 19, 1-117; Malkin et al., J. Phys. Chem. 1964, 68, 1153-1163; Saltiel, J. J. Am. Chem. Soc. 1967, 89, 1036-1037; Saltiel et al., J. Am. Chem. Soc. […]

The structures appear in SMILES notation. Where two headings read alike, the source gives them in different places.

For the compound `Oc1ccc(C=Cc2cc(O)cc(O)c2)cc1` [resveratrol], in [1], the “inhibition of amyloid-formation-associated cytotoxicity (literature)” value is on record as “known to inhibit amyloid-formation-associated cytotoxicity”.
With `Cc1cc(/C=C/c2ccc(C(=O)Oc3ccc(F)cc3)cc2)cc(C)c1O` [Compound 7], the “modification yield of the WT-TTR subunits (in words)” value in series [2] is “lower modification yield”.
Consider `O=C(O)c1ccc2nc(-c3cc(Cl)cc(Cl)c3)oc2c1` [Tafamidis], for which the “clinical efficacy in familial amyloid polyneuropathy” value in [3] was “halt the progression of familial amyloid polyneuropathy”.
Regarding `Cc1cc(/C=C/c2ccccc2)cc(C)c1O` [Compound 9, reference compound], the “cytotoxicity to IMR-32 cells in the absence of WT-TTR” value in series [4] (human, IMR-32 neuroblastoma cells, 24 h, 8 µM) is given as “None of these compounds were cytotoxic to IMR-32 cells”. Also, the “stabilization of K15A-TTR (in words)” value in series [5] is given as “additional stabilization of K15A-TTR was observed”. For the same compound, in series [6], the “inhibition of WT-TTR cytotoxicity to IMR-32 cells (in words)” value was “clearly and dose-dependently inhibits IMR-32 cytotoxicity”.
What is called IC50 is the midpoint of a concentration-inhibition curve. `Cc1cc(/C=C/c2ccc(C(=O)O)cc2)cc(C)c1O` [Compound 8, reference compound]: the IC50 in series [7] is about 3 µM. In addition, in series [4], the “cytotoxicity to IMR-32 cells in the absence of WT-TTR” value is on record as “None of these compounds were cytotoxic to IMR-32 cells”. In series [5], the “stabilization of K15A-TTR (in words)” value is listed as “additional stabilization of K15A-TTR was observed”. Besides, the “inhibition of WT-TTR cytotoxicity to IMR-32 cells (in words)” value in [6] was “clearly and dose-dependently inhibits IMR-32 cytotoxicity”.
In the case of `CCCNC(=O)c1cc(/C=C/c2cc(C)c(O)c(C)c2)cc(N(C)C)c1` [Compound B2, (E)-3-(dimethylamino)-5-(4-hydroxy-3,5-dimethylstyryl)-N-propylbenzamide], in series [8], the “increase in fluorescence intensity upon binding to K15A-TTR (B2)” value is on record as “approximately 4 fold”. Also, the “fluorescence quantum yield in buffer” value in series [9] was found to be 0.09. In addition, the “fluorescence quantum yield in complex or conjugate with TTR” value in series [10] stood at 0.55. Besides, in [11], the “% cis isomer after irradiation bound to TTR” value turned out to be 20% and the “% cis isomer after irradiation in buffer” value is on record as 60%.
